Measured values taken from PubChem BioAssay (NCI).
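Dose response: 5 concentrations. Exposure: 48 h. Format: 96-well plates. Endpoint: linear interpolation; highest concentration if not reached. Here, GI50 denotes the concentration required for 50% inhibition of growth. TGI: total growth inhibition.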

Tests used:
Assay in all cases: NCI-60 cell line screen, 48 h
786-0 renal = test system: 786-0 renal
A498 renal = test system: A498 renal
A549 NSCLC = test system: A549 NSCLC
ACHN renal = test system: ACHN renal
BT-549 breast = test system: BT-549 breast
CAKI-1 renal = test system: CAKI-1 renal
CCRF-CEM leukemia = test system: CCRF-CEM leukemia
COLO 205 colon = test system: COLO 205 colon
DU-145 prostate = test system: DU-145 prostate
EKVX NSCLC = test system: EKVX NSCLC
HCC-2998 colon = test system: HCC-2998 colon
HCT-116 colon = test system: HCT-116 colon
HCT-15 colon = test system: HCT-15 colon
HL-60(TB) leukemia = test system: HL-60(TB) leukemia
HOP-62 NSCLC = test system: HOP-62 NSCLC
HOP-92 NSCLC = test system: HOP-92 NSCLC
HS 578T breast = test system: HS 578T breast
HT29 colon = test system: HT29 colon
IGROV1 ovarian = test system: IGROV1 ovarian
K-562 leukemia = test system: K-562 leukemia
KM12 colon = test system: KM12 colon
LOX IMVI melanoma = test system: LOX IMVI melanoma
M14 melanoma = test system: M14 melanoma
MALME-3M melanoma = test system: MALME-3M melanoma
MCF7 breast = test system: MCF7 breast
MDA-MB-231 breast = test system: MDA-MB-231 breast
MDA-MB-435 = test system: MDA-MB-435
MOLT-4 leukemia = test system: MOLT-4 leukemia
NCI-H226 lung = test system: NCI-H226 lung
NCI-H23 lung = test system: NCI-H23 lung
NCI-H460 lung = test system: NCI-H460 lung
NCI-H522 lung = test system: NCI-H522 lung
NCI/ADR-RES ovarian = test system: NCI/ADR-RES ovarian
OVCAR-3 ovarian = test system: OVCAR-3 ovarian
OVCAR-4 ovarian = test system: OVCAR-4 ovarian
OVCAR-5 ovarian = test system: OVCAR-5 ovarian
OVCAR-8 ovarian = test system: OVCAR-8 ovarian
PC-3 prostate = test system: PC-3 prostate
RPMI-8226 leukemia = test system: RPMI-8226 leukemia
RXF 393 renal = test system: RXF 393 renal
SF-268 CNS = test system: SF-268 CNS
SF-295 CNS = test system: SF-295 CNS
SF-539 CNS = test system: SF-539 CNS
SK-MEL-2 melanoma = test system: SK-MEL-2 melanoma
SK-MEL-28 melanoma = test system: SK-MEL-28 melanoma
SK-MEL-5 melanoma = test system: SK-MEL-5 melanoma
SK-OV-3 ovarian = test system: SK-OV-3 ovarian
SN12C renal = test system: SN12C renal
SNB-19 CNS = test system: SNB-19 CNS
SNB-75 CNS = test system: SNB-75 CNS
SR leukemia = test system: SR leukemia
SW-620 colon = test system: SW-620 colon
T-47D breast = test system: T-47D breast
TK-10 renal = test system: TK-10 renal
U251 CNS = test system: U251 CNS
UACC-257 melanoma = test system: UACC-257 melanoma
UACC-62 melanoma = test system: UACC-62 melanoma
UO-31 renal = test system: UO-31 renal

## NCCOc1ncccc1/C=C1\c2ccccc2-c2ccc(F)cc21
786-0 renal
  GI50: 575 nM
  TGI: 1940 nM
A498 renal
  GI50: 1610 nM
  TGI: 4770 nM
A549 NSCLC
  GI50: 311 nM
  TGI: 1920 nM
ACHN renal
  GI50: 349 nM
  TGI: 1370 nM
BT-549 breast
  GI50: 1640 nM
  TGI: 4480 nM
CAKI-1 renal
  GI50: 461 nM
  TGI: 2000 nM
CCRF-CEM leukemia
  GI50: 316 nM
  TGI: 2390 nM
COLO 205 colon
  GI50: 1050 nM
  TGI: 2310 nM
DU-145 prostate
  GI50: 467 nM
  TGI: 1890 nM
EKVX NSCLC
  GI50: 1350 nM
  TGI: 3550 nM
HCC-2998 colon
  GI50: 1340 nM
  TGI: 2750 nM
HCT-116 colon
  GI50: 703 nM
  TGI: 2120 nM
HCT-15 colon
  GI50: 781 nM
  TGI: 2320 nM
HL-60(TB) leukemia
  GI50: 340 nM
  TGI: 1300 nM
HOP-62 NSCLC
  GI50: 446 nM
  TGI: 1870 nM
HOP-92 NSCLC
  GI50: 353 nM
  TGI: 3190 nM
HS 578T breast
  GI50: 1740 nM
  TGI: 5020 nM
HT29 colon
  GI50: 1190 nM
  TGI: 2800 nM
IGROV1 ovarian
  GI50: 1160 nM
  TGI: 2470 nM
K-562 leukemia
  GI50: 994 nM
  TGI: 3390 nM
KM12 colon
  GI50: 1460 nM
  TGI: 2980 nM
LOX IMVI melanoma
  GI50: 598 nM
  TGI: 1980 nM
M14 melanoma
  GI50: 739 nM
  TGI: 2260 nM
MALME-3M melanoma
  GI50: 1240 nM
  TGI: 2640 nM
MCF7 breast
  GI50: 379 nM
  TGI: 1680 nM
MDA-MB-231 breast
  GI50: 1430 nM
  TGI: 2940 nM
MDA-MB-435
  GI50: 1550 nM
  TGI: 2980 nM
MOLT-4 leukemia
  GI50: 282 nM
  TGI: 1160 nM
NCI-H226 lung
  GI50: 1000 nM
  TGI: 2530 nM
NCI-H23 lung
  GI50: 631 nM
  TGI: 2510 nM
NCI-H460 lung
  GI50: 236 nM
  TGI: 1370 nM
NCI-H522 lung
  GI50: 1130 nM
  TGI: 2760 nM
NCI/ADR-RES ovarian
  GI50: 1240 nM
  TGI: 2710 nM
OVCAR-3 ovarian
  GI50: 1630 nM
  TGI: 3110 nM
OVCAR-4 ovarian
  GI50: 1520 nM
  TGI: 3470 nM
OVCAR-5 ovarian
  GI50: 1570 nM
  TGI: 3070 nM
OVCAR-8 ovarian
  GI50: 1080 nM
  TGI: 2750 nM
PC-3 prostate
  GI50: 1180 nM
  TGI: 2620 nM
RPMI-8226 leukemia
  GI50: 1470 nM
  TGI: 3510 nM
RXF 393 renal
  GI50: 1600 nM
  TGI: 3660 nM
SF-268 CNS
  GI50: 1080 nM
  TGI: 4100 nM
SF-295 CNS
  GI50: 462 nM
  TGI: 1810 nM
SF-539 CNS
  GI50: 1490 nM
  TGI: 2870 nM
SK-MEL-2 melanoma
  GI50: 1910 nM
  TGI: 3760 nM
SK-MEL-28 melanoma
  GI50: 1620 nM
  TGI: 3040 nM
SK-MEL-5 melanoma
  GI50: 1360 nM
  TGI: 2680 nM
SK-OV-3 ovarian
  GI50: 1240 nM
  TGI: 2910 nM
SN12C renal
  GI50: 449 nM
  TGI: 1710 nM
SNB-19 CNS
  GI50: 570 nM
  TGI: 2580 nM
SNB-75 CNS
  GI50: 1100 nM
  TGI: 3260 nM
SR leukemia
  GI50: 116 nM
  TGI: 2940 nM
SW-620 colon
  GI50: 682 nM
  TGI: 2170 nM
T-47D breast
  GI50: 687 nM
  TGI: 2740 nM
TK-10 renal
  GI50: 1370 nM
  TGI: 2850 nM
U251 CNS
  GI50: 525 nM
  TGI: 1850 nM
UACC-257 melanoma
  GI50: 1660 nM
  TGI: 3340 nM
UACC-62 melanoma
  GI50: 1040 nM
  TGI: 2380 nM
UO-31 renal
  GI50: 1120 nM
  TGI: 2340 nM
